Source: patent US20050222100A1 (priority 2002, published 2005)

Experiment: Pilot study: irregular vaginal bleeding
Type: in vivo, post-menopausal women
Conditions: 2.5 mg tibolone per day added to 20 mg tamoxifen per day
Source text: The women, all below the age of 65 years, were postmenopausal for at least three years at the time of diagnosis. Their follicle stimulating hormone (FSH) levels were greater than 40 IU/L and their estradiol (E2) levels were below 20 pg/mL.

C#C[C@]1(O)CC[C@H]2[C@@H]3[C@H](C)CC4=C(CCC(=O)C4)[C@H]3CC[C@@]21C [Tibolone, (7α, 17α)-17-hydroxy-7-methyl-19-nor-17-pregn-5(10)-en-20-yn-3-one]
effect on irregular bleeding: minimal effect
